Measurements as given in the supplement of paper PMC11451515.

Tests used:
Settings in all cases: 48 h
SEM cells [1] = assay: AUC of viability dose-response curve (% viability x log10 dose units); higher = less sensitive
Summary of the method: (§1)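 Leukemia cells adapted to each medium (500 or 1000 cells/well, 1536-well plates) were exposed to library compounds in DMSO for 48 h at 37°C at 11 threefold doses, 47 μM to 0.79 nM. Luminescence by CellTiter-Glo One was normalised per plate to DMSO and cell-free wells, then fitted with a four-parameter log-logistic curve on log10 dose. Curves above full viability were scaled and quality-control failures removed before area under the curve was integrated by trapezoidal rule.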

P12-Ichikawa [2] = assay: as above
Summary of the method: as §1

NOMO1 [3] = assay: as above
Summary of the method: as §1

SEM cells [4] = assay: cell viability relative to DMSO control; higher = less cytotoxic
Summary of the method: (§2)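 Viability was expressed as a per-plate percentage of DMSO wells, with cell-free wells as background. Leukemia cells (NOMO1 or SEM at 500 cells/well, P12-Ichikawa at 1000 cells/well) were adapted for at least four passages in each medium and seeded in 1536-well plates (5 μl). Library compounds in DMSO were pin-dosed over an 11-point threefold series from 47 μM to 0.79 nM, and CellTiter-Glo One luminescence was read after 48 h at 37°C.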

P12-Ichikawa [5] = assay: as above
Summary of the method: as §2

NOMO1 [6] = assay: as above
Summary of the method: as §2

C#Cc1cccc(Nc2ncnc3cc(OCCOC)c(OCCO)cc23)c1
AUC of viability dose-response curve
Settings | NOMO1 [3] | P12-Ichikawa [2] | SEM cells [1]
HPLM + 10% dialyzed FBS | 372 | 451 | 431
RPMI 5 mM glucose + 10% FBS | 455 | 453 | 400
RPMI 5 mM glucose + 10% dialyzed FBS | 455 | 451 | 417

cell viability [%]
Settings | NOMO1 [6] | P12-Ichikawa [5] | SEM cells [4]
HPLM + 10% dialyzed FBS, 0.000781 µM | 135 | 113 | 104
HPLM + 10% dialyzed FBS, 0.00234 µM | 110 | 111 | 113
HPLM + 10% dialyzed FBS, 0.00702 µM | 119 | 113 | 98.3
HPLM + 10% dialyzed FBS, 0.0211 µM | 119 | 109 | 117
HPLM + 10% dialyzed FBS, 0.0632 µM | 125 | 112 | 116
HPLM + 10% dialyzed FBS, 0.19 µM | 116 | 113 | 123
HPLM + 10% dialyzed FBS, 0.569 µM | 100 | 122 | 110
HPLM + 10% dialyzed FBS, 1.71 µM | 68.7 | 104 | 105
HPLM + 10% dialyzed FBS, 5.12 µM | 63.3 | 105 | 96.8
HPLM + 10% dialyzed FBS, 15.4 µM | 69.9 | 91.6 | 69.1
HPLM + 10% dialyzed FBS, 46.1 µM | 28.1 | 46.2 | 20
RPMI 5 mM glucose + 10% FBS, 0.000781 µM | 118 | 118 | –
RPMI 5 mM glucose + 10% FBS, 0.00234 µM | 105 | 101 | –
RPMI 5 mM glucose + 10% FBS, 0.00702 µM | 110 | 107 | –
RPMI 5 mM glucose + 10% FBS, 0.0211 µM | 94.6 | 119 | –
RPMI 5 mM glucose + 10% FBS, 0.0632 µM | 118 | 110 | –
RPMI 5 mM glucose + 10% FBS, 0.19 µM | 104 | 119 | –
RPMI 5 mM glucose + 10% FBS, 0.569 µM | 112 | 111 | –
RPMI 5 mM glucose + 10% FBS, 1.71 µM | 94.2 | 109 | –
RPMI 5 mM glucose + 10% FBS, 5.12 µM | 103 | 98.5 | –
RPMI 5 mM glucose + 10% FBS, 15.4 µM | 93.2 | 95.7 | –
RPMI 5 mM glucose + 10% FBS, 46.1 µM | 33.9 | 49.4 | –
RPMI 5 mM glucose + 10% dialyzed FBS, 0.000781 µM | 118 | 115 | 114
RPMI 5 mM glucose + 10% dialyzed FBS, 0.00234 µM | 123 | 110 | 107
RPMI 5 mM glucose + 10% dialyzed FBS, 0.00702 µM | 98.2 | 118 | 118
RPMI 5 mM glucose + 10% dialyzed FBS, 0.0211 µM | 112 | 110 | 114
RPMI 5 mM glucose + 10% dialyzed FBS, 0.0632 µM | 104 | 113 | 116
RPMI 5 mM glucose + 10% dialyzed FBS, 0.19 µM | 112 | 108 | 103
RPMI 5 mM glucose + 10% dialyzed FBS, 0.569 µM | 118 | 106 | 105
RPMI 5 mM glucose + 10% dialyzed FBS, 1.71 µM | 92.2 | 111 | 88.4
RPMI 5 mM glucose + 10% dialyzed FBS, 5.12 µM | 104 | 104 | 94.9
RPMI 5 mM glucose + 10% dialyzed FBS, 15.4 µM | 94.7 | 91.5 | 62.5
RPMI 5 mM glucose + 10% dialyzed FBS, 46.1 µM | 41.7 | 43.3 | 14.5
